One test has as its target T1, HCV Δ21 NS5b polymerase (Hepatitis C virus genotype 1b, UniProt Q9WMX2).
T1 construct: 75 nM HCV Δ21 NS5b polymerase
The test is described as follows: HCV IC50 determination: NS5b polymerase assay. It is filed as biochemical.
Details: not given
As for the experimental part:
Assay Protocol: NS5b polymerase assay (40 μL) was assembled by adding 28 μL polymerase mixture (final concentration: 50 mM Tris-HCl at pH 7.5, 10 mM KCL, 5 mM MgCl2, 1 mM DTT, 10 mM EDTA, 4 ng/μL of RNA template, and 75 nM HCV Δ21 NS5b polymerase) to assay plates followed by 4 μL of compound dilution. The polymerase and compound were pre-incubated at 35° C. for 10 minute before the addition of 8 μL of nucleotide substrate mixture (33P-α-labeled competing nucleotide at KM and 0.5 mM of the remaining three nucleotides). The assay plates were covered and incubated at 35° C. for 90 mM. Reactions were then filtered through 96-well DEAE-81 filter plates via vacuum. The filter plates were then washed under vacuum with multiple volumes of 0.125 M NaHPO4, water, and ethanol to remove unincorporated label. Plates were then counted on TopCount to assess the level of product synthesis over background controls. The IC50 value is determined using Prism fitting program.
`C[C@@]1(O)[C@H](O)[C@@H](COP(=O)(O)O)O[C@@]1(C#N)c1ccc2c(N)ncnn12` [Compound 17] showed an IC50 of less than 1 µM.

Another test relates to HCV replicon cells. The test is described as follows: HCV EC50 determination: replicon luciferase assay. It counts as cell-based. The following applies: Hepatitis C virus, 72 h, 3 days incubation, luciferase activity. As for the experimental part: Replicon cells were seeded in 96-well plates at a density of 8×10^3 cells per well in 100 μL of culture medium, excluding Geneticin. Compound was serially diluted in 100% DMSO and then added to the cells at a 1:200 dilution, achieving a final concentration of 0.5% DMSO and a total volume of 200 μL. Plates were incubated at 37° C. for 3 days, after which culture medium was removed and cells were lysed in lysis buffer provided by Promega's luciferase assay system. Following the manufacturer's instruction, 100 μL of luciferase substrate was added to the lysed cells and luciferase activity was measured in a TopCount luminometer.
On the technique in general: Replicon systems follow genome replication, usually without infectious particles.
Molecule `CO[C@@]1(c2ccc3c(N)ncnn23)O[C@H](CO)[C@@H](O)[C@H]1O` [Compound 12] came in with a 50% effective concentration (EC50) of 1 to 10 µM.
Still for that read-out and setting: in the case of `C[C@@]1(O)[C@H](O)[C@@H](CO)O[C@@]1(C#N)c1ccc2c(N)ncnn12` [Compound 5] it was 10 to 100 µM; in that of `N#C[C@@]1(c2ccc3c(N)ncnn23)O[C@H](CO)[C@@H](O)[C@H]1O` [Compound 13], 1 to 10 µM; in that of `CO[C@@]1(c2ccc3c(N)ncnn23)O[C@H](CO)[C@@H](O)[C@@]1(C)O` [Compound 3], 10 to 100 µM.
The same measure, in the same setting: in the case of `CC(C)(C)C(=O)SCCOP(=O)(OCCSC(=O)C(C)(C)C)OC[C@H]1O[C@@](C#N)(c2ccc3c(N)ncnn23)[C@](C)(O)[C@@H]1O` [Compound 6] it was less than 1 µM.
On the same count and under the same terms, for `C[C@@]1(c2ccc3c(N)ncnn23)O[C@H](CO)[C@@H](O)[C@@]1(C)O` [Compound 4] the value was 10 to 100 µM; for `C[C@@]1(O)[C@H](O)[C@@H](CO)OC1(O)c1ccc2c(N)ncnn12` (some centres unmarked) [Compound 2], 10 to 100 µM.

As usually defined, the IC50 is the concentration at which inhibition is half-maximal. In general, EC50 refers to the concentration needed to bring the measured effect to its halfway point. The low end stands for higher potency in that assay, the high end for lower potency in that assay.

Source of the values: patent US8853171B2, “1′-substituted carba-nucleoside analogs for antiviral treatment” (Gilead Sciences, Inc., priority 2008, dated 2014).
